Values of other authors as cited in patent US20020103221A1, “Use of growth hormone secretagogues for improvement of functional health status” (priority 2000, published 2002).
Non-standard residues stand in square brackets, D forms with d. Residues, ends and D or L forms follow the SMILES beside them. d2Nal = N[C@H](Cc1ccc2ccccc2c1)C(=O)O; Aib = CC(C)(N)C(=O)O

Experiments:
[1] = GH-deficient adults
[2] = test system: serum insulin-like growth factor-I; quadriceps muscle; conditions: canines, during remobilization
[3] = test system: markers of bone formation and bone resorption; conditions: obese young males
[4] = adult female rats

For “growth hormone: growth hormone replacement given to GH-deficient adults”, the self-perceived well-being [1] is listed as “significant improvements”.
For `CC(C)(N)C(=O)N[C@H](COCc1ccccc1)C(=O)N1CCC2(CC1)CN(S(C)(=O)=O)c1ccccc12` [MK-0677], the “levels of serum insulin-like growth factor-I” value [2] is given as “elevated”, the “size and strength of the quadriceps muscle” value [2] is given as “increased” and the “markers of bone formation and bone resorption” value [3] is given as “increases”.
For GHRP-6, the bone mass [4] is given as “capacity to increase bone mass”.
For `CC(C)(N)C(=O)N[C@@H](Cc1c[nH]cn1)C(=O)N[C@H](Cc1ccc2ccccc2c1)C(=O)N[C@H](Cc1ccccc1)C(=O)N[C@@H](CCCCN)C(N)=O` [ipamorelin] (H-[Aib]H[d2Nal][dF]K-NH2), the bone mass [4] is given as “capacity to increase bone mass”.
